Experimental findings from patent US20250313555A1, “2-SUBSTITUTED THIAZOLE AND BENZOTHIAZOLE COMPOSITIONS AND METHODS AS DUX4 INHIBITORS” (ALTAY THERAPEUTICS, INC., priority 2022, published 2025) are described below.

As usually defined, the EC50 is the concentration needed to bring the measured effect to its halfway point. A word on the CC50: it is the concentration at which the toxic effect on the cells reaches its halfway point. Higher therefore signals lower toxicity to the cells.

Common to all, as to assay type: cell-based
One data set deals with T1, DUX4 (Homo sapiens, UniProt Q9UBX2).
T1 construct: expressed in transfected cells; host or cells: HEK293
Put plainly: DUX4 EC50 luciferase reporter protocol in transfected HEK293 cells. The following applies: 6 hr. The source says:
EC50 Protocol This example provides a representative protocol for a single well of a 96-well plate. It can be scaled up as necessary for treatment of multiple wells. For negative controls, a well containing reporter DNA, Renilla DNA, and turbofect (without expression vector) were used. For positive controls, wells containing cells that were not treated with any inhibitor were used. They were transfected with the complete DNA lipid complex as set forth below. The DNA-lipid complex for one well of the 96-well plate is prepared by adding to a tube 100 ng of the transfection factor (TF) expression vector, 100 ng of TF reporter DNA, 10 ng of Renilla reporter DNA, […] Turbofect transfection reagent, and […] of the medium without any serum or penicillin/streptomycin. The combination was mixed by gentle flicking of the tube, and the mixture was pipetted into a well of a 96-well plate. The plate was then gently tapped to spread the combination evenly on the bottom of the well. The well was incubated for 30 min. HEK293 cells were grown until 80% confluent in DMEM supplemented with 10% fetal bovine serum, 1% penicillin streptomycin, and 1% amphotericin B. The adherent cells growing on a 10 cm plate were trypsinized with 1 mL of prewarmed trypsin. Once the cells detached from the plate, 10 mL of medium was added, and the cells were strained through a […] cell strainer. The cells were counted using a mixture of 10 mL cell suspension with 10 mL of trypan blue. Once the total number of cells are counted, a dilution of 150 k/mL was prepared. After incubation of the transfection complex was complete, […] of HEK293s (23.25 k total cells) were gently dispensed on top of the wells containing the 25 mL transfection complex, producing a total volume of about 180 mL. The mixture was then incubated for 24 h. To treat cells with each inhibitor, the inhibitors were prepared in the same growth medium. In a deep well block, the regular medium with serum was added to well 1 (135 mL) and to wells 2 through 10 (100 mL). To the first well was added 15 mL of 10 nM inhibitor. The final concentration of the drug in well 1 was 1 nM. The wells were pipeted up and down, and 50 mL was transferred from well 1 to well 2 (1/3 dilution). The well was mixed, and the seriation dilution was repeated with the remaining wells. Once the serial dilution was complete, using a multichannel pipet, 20 mL of each inhibitor were transferred to designated wells in a 96-well plate. […] Before the assay, a sufficient amount of 1× passive lysis buffer was prepared. The luciferase substrate buffer (Promega) was thawed completely and then mixed with the lyophilized luciferase substrate. The stop buffer (Promega) was also completely thawed. (1) Cell lysis: After treatment of the cells was complete, all the cell media is removed by flipping the 96-well plate over and tapping it dry on a dry paper towel. Immediately afterwards, the 1× passive lysis buffer (25 μL) was added. The plates were then placed on a rocker for 15 minutes at medium speed. (2)Measuring luciferase signal: The luciferase substrate solution for all wells was placed in a solution basin. The luciferase substrate solution was then added to every well (100 μL/well) using a multichannel pipette. The total luminescence was then read immediately using a plate reader. (3)Measuring Renilla signal: The “complete stop solution” was prepared in a solution basin by mixing the buffer with the 50× stop solution substrate (Promega) to make the final 1× solution. The complete stop solution was added to each well (50 μL/well) using a multichannel pipette. The total luminescence was then read immediately using a plate reader. Using a spreadsheet (e.g., Excel), the luciferase signal was divided by the renilla signal to get a relative luciferase unit.
(In general: In a reporter assay the amount or activity of a reporter protein is the signal.)

For the next data set, the system named is MB200 cells. Put plainly: Cell cytotoxicity 50 assay (CC50), MB200 cells, cell titer glo. The following applies: 72 h. Summed up: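 Luminescence from CellTiter-Glo after 72 h of compound exposure at 37 °C gave the CC50 for MB200 cells. These were plated at 10 k cells/well in triplicate in supplemented F10 medium and treated with a serial dilution series prepared from a 10 mM stock.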
In general terms: In ATP-based viability assays light output follows the ATP content of the culture.

The next data set deals with HEK. Put plainly: Cell cytotoxicity 50 assay (CC50), HEK cells. Summed up: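 CC50 was fitted from total luminescence, measured 5 min after adding CellTiter-Glo reagent to HEK cells. The cells had been exposed for 72 h at 37 °C to medium serial dilutions prepared from a 10 mM drug solution.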

Bounds are passed on as bounds.

T1 sequence (Q9UBX2 whole entry): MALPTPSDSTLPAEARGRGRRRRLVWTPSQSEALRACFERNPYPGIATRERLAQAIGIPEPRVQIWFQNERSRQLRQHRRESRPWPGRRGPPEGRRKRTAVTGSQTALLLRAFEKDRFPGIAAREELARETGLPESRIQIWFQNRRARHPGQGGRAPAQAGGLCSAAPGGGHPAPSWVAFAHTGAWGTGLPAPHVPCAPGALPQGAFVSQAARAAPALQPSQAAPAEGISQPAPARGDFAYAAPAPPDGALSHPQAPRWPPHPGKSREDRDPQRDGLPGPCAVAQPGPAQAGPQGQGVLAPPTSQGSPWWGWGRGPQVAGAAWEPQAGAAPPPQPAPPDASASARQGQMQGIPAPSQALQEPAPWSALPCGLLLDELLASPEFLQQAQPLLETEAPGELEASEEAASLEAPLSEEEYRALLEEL

For the compound `O=C(NCCCN1C(=O)CCC1=O)c1ccc(-c2nc3ccccc3s2)cc1` [Compound 7], the EC50 on DUX4 is > 10 µM.

For `O=C(CCN1CCCC1=O)Nc1ccc(Cc2nc3ccccc3s2)cc1` [Compound 8], on DUX4, the concentration giving a half-maximal response (EC50) is > 10 µM.

For `O=C(NCCc1cncnc1)c1ccc(-c2nc3ccccc3s2)cc1` [Compound 11], the 50% effective concentration (EC50) at DUX4 is > 10 µM.

Turning to `O=C(NCCN1C(=O)CCC1=O)c1ccc(-c2nc3ccccc3s2)cc1` [Compound 22], at DUX4, the EC50 was > 10 µM.

With `CC(=O)CCCCC(=O)Nc1ccc(-c2nccs2)cc1` [Compound 23], the EC50 on DUX4 was > 10 µM.

Consider `CC(=O)NCCCC(=O)NC1CCC(c2nc3ccccc3s2)CC1` (stereo not drawn) [Compound 28], for which, on DUX4, the EC50 is > 10 µM.

With `O=C(CCCc1cnco1)Nc1ccc(Cc2nc3ccccc3s2)cc1` [Compound 66], the EC50 at DUX4 was > 10 µM.

`CC(=O)NCCCC(=O)Nc1ccc(-c2nccs2)cc1` [Compound 70]: at DUX4, the EC50 was > 10 µM.

As to `CC(=O)NCCCC(=O)Nc1cccc(-c2nc3ccccc3s2)c1` [Compound 71], at DUX4, the EC50 is > 10 µM.

As for `CC(=O)NCCCC(=O)Nc1cc(C)cc(-c2nc3ccccc3s2)c1` [Compound 72], the EC50 on DUX4 is > 10 µM.

Consider `O=C(CCCN1C(=O)CCC1=O)NC1CC(c2nc3ccccc3s2)C1` (stereo not drawn) [Compound 89], for which the concentration giving a half-maximal response (EC50) at DUX4 is > 10 µM.

Take `O=C(CCCN1C(=O)CCC1=O)NC1CCC(c2nc3ccccc3s2)C1` (stereo not drawn) [Compound 90]: the 50% effective concentration (EC50) at DUX4 was > 10 µM.

Consider `O=C(CCCN1C(=O)CCC1=O)NCCCc1nc2ccccc2s1` [Compound 91], for which the half-maximal effective concentration (EC50) on DUX4 is > 10 µM.

As for `O=C(CCCN1C(=O)CCC1=O)NC1CCCC1c1nc2ccccc2s1` (stereo not drawn) [Compound 92], the concentration giving a half-maximal response (EC50) at DUX4 was > 10 µM.

Turning to `O=C(CCCN1C(=O)CCC1=O)N[C@H]1C[C@@H](c2nc3ccccc3s2)C1` [Compound 97], on DUX4, the concentration giving a half-maximal response (EC50) was > 10 µM.

For `CC(=O)NCCCC(=O)Nc1cc(Cl)cc(-c2nc3ccccc3s2)c1` [Compound 101], the EC50 on DUX4 is > 10 µM.

On to `CC(=O)NCCCC(=O)Nc1cc(Cl)cc(-c2nc3cc(F)ccc3s2)c1` [Compound 102], for which the EC50 at DUX4 is > 10 µM.

On to `CC(=O)NCCCC(=O)NCCCc1nc2ccccc2s1` [Compound 106], for which the EC50 at DUX4 is > 10 µM.

For the compound `CC(=O)NCCCC(=O)Nc1nc2ccccc2s1` [Compound 107], the EC50 at DUX4 was > 10 µM.

For the compound `O=C(CCCN1C(=O)CCC1=O)Nc1nc2ccccc2s1` [Compound 108], the 50% effective concentration (EC50) on DUX4 was > 10 µM. In addition, the cytotoxic concentration (CC50) with MB200 cells and in the data set on HEK was > 10 µM in each case.

`CC(C)(NC(=O)CCCN1CCCC1=O)c1ccc(-c2nc3ccccc3s2)cc1` [Compound 110]: the half-maximal effective concentration (EC50) at DUX4 is > 10 µM.

In the case of `CC(=O)NCCCC(=O)N[C@H]1C[C@H](c2nc3ccccc3s2)C1` [Compound 112], on DUX4, the EC50 is > 10 µM.

For the compound `CC(=O)NCCCC(=O)N[C@H]1C[C@@H](c2nc3ccccc3s2)C1` [Compound 113], the half-maximal effective concentration (EC50) on DUX4 is > 10 µM.

On to `CC(=O)NCCCC(=O)N[C@@H]1CC[C@H](c2nc3ccccc3s2)C1` [Compound 114], for which the EC50 on DUX4 was > 10 µM.

Regarding `CC(=O)NCCCC(=O)N[C@H]1CC[C@H](c2nc3ccccc3s2)C1` [Compound 115], the half-maximal effective concentration (EC50) at DUX4 was > 10 µM.

Consider `O=C(CCCN1CCCC1=O)NC1CCCC1c1nc2ccccc2s1` (stereo not drawn) [Compound 117], for which the half-maximal effective concentration (EC50) at DUX4 is > 10 µM.

Take `O=C(CCCN1CCCC1=O)NCCCc1nc2ccccc2s1` [Compound 118]: the EC50 at DUX4 is > 10 µM.

Regarding `O=C(Cc1ccc(-c2nc3ccccc3s2)cc1)NCCN1CCCC1=O` [Compound 119], the half-maximal effective concentration (EC50) on DUX4 was > 10 µM.

Regarding `C=C(C)NCCC(=C)Nc1cc(C)cc(Cc2nc3ccccc3s2)c1` [Compound 120], the 50% effective concentration (EC50) on DUX4 is > 10 µM.

As to `CC(=O)NCCCC(=O)Nc1nc(-c2ccccc2)cs1` [Compound 126], at DUX4, the concentration giving a half-maximal response (EC50) is > 10 µM.

As for `CC(=O)NC1CCC(C(=O)Nc2nc3ccccc3s2)C1` (stereo not drawn) [Compound 131], the EC50 on DUX4 was > 10 µM.

For the compound `CC(=O)NC1CCC(C(=O)N[C@H]2CC[C@H](c3nc4ccccc4s3)CC2)C1` (stereo partly drawn) [Compound 134], the concentration for a half-maximal effect (EC50) on DUX4 was > 10 µM.

Turning to `CC(=O)NCCCc1nc(CCCC(=O)Nc2ccc(-c3nc4cc(F)ccc4s3)cc2)co1` [Compound 138], the EC50 at DUX4 is > 10 µM.

Regarding `CN(C(=O)CCCN1C(=O)CCC1=O)c1ccc(-c2nc3cc(F)ccc3s2)cc1` [Compound 144], the EC50 at DUX4 is > 10 µM.

On to `CC(=O)NCCCNC(=O)c1ccc(-c2nc3ccccc3s2)o1` [Compound 149], for which the EC50 at DUX4 is > 10 µM.

With `O=C(CCCCN1C(=O)CCC1=O)N[C@H]1CC[C@@H](c2nc3ccccc3s2)CC1` [Compound 151], the EC50 at DUX4 was > 10 µM.

For the compound `O=C(CCCc1cccnc1)NC1CCC(c2nc3ccccc3s2)C1` (stereo not drawn) [Compound 157], on DUX4, the 50% effective concentration (EC50) is > 10 µM.

Regarding `O=C(CCCN1C(=O)CCC1=O)NC1CCC(Cc2nc3ccccc3s2)C1` (stereo not drawn) [Compound 158], the EC50 on DUX4 is > 10 µM.

In the case of `O=C(CCCN1C(=O)CCC1=O)N[C@H]1CC[C@H](c2nc3ccccc3s2)C1` [Compound 161], at DUX4, the half-maximal effective concentration (EC50) was > 10 µM. For the same compound, the CC50 with MB200 cells and in the data set with HEK was > 10 µM throughout.

`O=C(CCCN1C(=O)CCC1=O)N[C@@H]1CC[C@@H](c2nc3ccccc3s2)C1` [Compound 162]: the concentration giving a half-maximal response (EC50) on DUX4 was > 10 µM.

`O=C(CCCc1cccnc1)N[C@H]1CC[C@@H](c2nc3ccccc3s2)CC1` [Compound 163]: the half-maximal effective concentration (EC50) at DUX4 was > 10 µM.

Regarding `O=C(CCCc1cccnc1)N[C@H]1CC[C@H](c2nc3ccccc3s2)CC1` [Compound 164], at DUX4, the EC50 is > 10 µM.

As to `CN(C(=O)CCCN1C(=O)CCC1=O)c1ccc(Cc2nc3ccccc3s2)cc1` [Compound 169], at DUX4, the half-maximal effective concentration (EC50) was > 10 µM.

As for `CC(=O)NCCCC(=O)N[C@H]1CC[C@@H](Cc2nc3ccccc3s2)CC1` [Compound 171], the EC50 on DUX4 is > 10 µM.

As to `CC(=O)NCCCC(=O)N[C@H]1CC[C@H](Cc2nc3ccccc3s2)CC1` [Compound 172], at DUX4, the EC50 is > 10 µM.

In the case of `CC(=O)NCCCNC(=O)C12CCC(c3nc4ccccc4s3)(CC1)CC2` [Compound 173], on DUX4, the concentration giving a half-maximal response (EC50) was > 10 µM.

Consider `CN(C(=O)CCC1CCC(=O)N1)c1ccc(-c2nc3ccccc3s2)cc1` (stereo not drawn) [Compound 177], for which, on DUX4, the EC50 is > 10 µM.

`O=C(CCC1CCC(=O)N1)Nc1ccc(Cc2nc3ccccc3s2)cc1` (stereo not drawn) [Compound 178]: the concentration giving a half-maximal response (EC50) at DUX4 is > 10 µM.

Take `O=C(CCC1CCC(=O)N1)Nc1ccc(-c2nc3ccccc3s2)o1` (stereo not drawn) [Compound 179]: the 50% effective concentration (EC50) at DUX4 is > 10 µM.

For the compound `CC(=O)N[C@@H]1CC[C@H](C(=O)Nc2nc3ccccc3s2)C1` [Compound 182], on DUX4, the EC50 is > 10 µM.

For the compound `CC(=O)N[C@H]1CC[C@@H](C(=O)Nc2nc3ccccc3s2)C1` [Compound 183], at DUX4, the EC50 was > 10 µM.

With `CC(=O)N[C@@H]1CC[C@@H](C(=O)Nc2nc3ccccc3s2)C1` [Compound 185], the concentration giving a half-maximal response (EC50) at DUX4 was > 10 µM.

As to `CC(=O)NCCCNC(=O)c1cc(C#N)cc(-c2nc3cc(F)ccc3s2)c1` [Compound 188], on DUX4, the concentration giving a half-maximal response (EC50) is > 10 µM.
